The results in this text go back to patent publication US20010049441A1, “Azaindoles having serotonin receptor affnity” (Allelix Biopharmaceuticals, Inc., priority 1999, published 2001).

By inhibition is commonly meant the percentage by which the read-out fell short of the control.

Molecules are shown by their SMILES.

The target of the first test is T1, 5-HT6 receptor (Homo sapiens, UniProt P50406).
T1 construct: expressed in transfected cells
T1 sequence (P50406 whole entry): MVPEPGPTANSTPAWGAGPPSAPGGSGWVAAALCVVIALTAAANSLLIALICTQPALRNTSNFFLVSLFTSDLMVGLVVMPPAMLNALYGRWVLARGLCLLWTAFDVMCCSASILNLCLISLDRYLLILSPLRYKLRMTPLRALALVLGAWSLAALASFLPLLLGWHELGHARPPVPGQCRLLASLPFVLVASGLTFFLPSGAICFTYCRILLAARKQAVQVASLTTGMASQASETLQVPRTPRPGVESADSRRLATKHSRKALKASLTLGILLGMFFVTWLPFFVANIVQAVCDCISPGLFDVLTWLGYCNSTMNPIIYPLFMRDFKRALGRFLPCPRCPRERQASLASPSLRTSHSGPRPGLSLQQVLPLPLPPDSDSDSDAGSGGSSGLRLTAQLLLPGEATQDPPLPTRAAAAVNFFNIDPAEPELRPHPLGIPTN
The test is described as follows: Functional assay: serotonin-induced adenyl cyclase activity (cAMP) in HEK 293 cells. Type of test: cell-based. As to conditions: HEK 293 cells stably expressing human 5HT6 receptor; test compound (100 nM and 10 μM) along with serotonin; cAMP by EIA. The procedure:
The 5HT6 receptor responds to serotonin and other agonists by increasing adenyl cyclase mediated production of cyclic AMP. Particular test compounds were assayed for their effect on adenyl cyclase activity using the procedure described below.
Compounds acting as antagonists at the 5HT6 receptor will antagonize the agonist effect of serotonin and thus, will block the serotonin-induced increase in adenyl cyclase activity.
HEK 293 cells stably expressing the human 5HT6 receptor were plated in 6 well plates in DMEM (Dulbecco's Modified Eagle Medium)/F12 (Nutrient Mixture F12—Ham) media with 10% FCS (fetal calf serum) and G418 (Geneticen Disulfate, 500 ug/ml), and incubated at 37° C. in a CO2 incubator. The cells were allowed to grow to about 70% confluence before use in the assay.
The culture medium of each well was removed, and the wells were washed once with serum free media. Then 2 ml of SFM+IBMX medium (SFM with 0.5 mM IBMX, 3-isobutyl-1-methylxanthine, 0.1% ascorbic acid and 10 mM pargyline) was added to each well and the wells were incubated at 37° C. for 10 min. Following incubation, the SFM+IBMX medium was removed from each well and fresh SFM+IBMX media was added to the wells separately with one of a) serotonin (1 μM final concentration); b) test compound (100 nM and 10 μM, to test for agonist activity); and c) test compound (100 nM and 10 μM) along with serotonin ([…], to test for antagonist activity). Basal adenyl cyclase activity was determined from wells with only SFM+IBMX media added.
The cells were then incubated at 37° C. for 30 minutes in a CO2 incubator. […] The pellets were discarded and the supernatants were stored at 4° C. until assayed for cAMP concentration. cAMP content for each extract was determined in duplicate by EIA (enzyme-immunoassay) using the Amersham Biotrak cAMP EIA kit (Amersham RPN 225). Final results were expressed as %basal response for agonists and % reversal of serotonin response for antagonists.
The total stimulation of adenyl cyclase by serotonin (So) was determined as the difference in concentration of cAMP in the serotonin-treated cells (Cd) and the basal-treated cells (Cf).
The net stimulation (S) of basal adenyl cyclase by an agonist test compound was determined as the difference in cAMP concentration in the drug-treated cell (C) and the basal-treated cells (Cf).
The net stimulation (Ss) of basal adenyl cyclase by serotonin in the presence of an antagonist test compound was determined as the difference in cAMP concentration in the serontonin-drug-treated cells (Cs) and the basal-treated cells (Cf).
The ability of the antagonist test compound to reverse the serotonin stimuation of adenyl cyclase activity (% reversal, %R) was determined by the formula: […]
As to `O=S(=O)(c1cccc2ccccc12)n1cc(C2=CCN3CCCC3C2)c2cnccc21` (stereo not shown) [3-(1,2,3,5,8,8a-Hexahydro-7-indolizinyl)-1-(1-naphthalenesulfonyl)-5-azaindole], the “reversal of serotonin stimulation of adenyl cyclase (5-HT6 receptor antagonist behaviour)” value (shortened to “reversal”) is “able to reverse the serotonin stimulation of adenyl cyclase”.

On to `O=S(=O)(c1cccc2ccccc12)n1cc(C2=CCN3CCCC3C2)c2cccnc21` (stereo not shown) [3-(1,2,3,5,8,8a-Hexahydro-7-indolizinyl)-1-(1-naphthalenesulfonyl)-7-azaindole], for which the “reversal” value is “able to reverse the serotonin stimulation of adenyl cyclase”.

Take `O=S(=O)(c1ccccc1)n1cc(C2=CCN3CCCC3C2)c2cnccc21` (stereo not shown) [3-(1,2,3,5,8,8a-Hexahydro-7-indolizinyl)-1-benzenesulfonyl-5-azaindole]: the “reversal” value was “able to reverse the serotonin stimulation of adenyl cyclase”.

Regarding `O=S(=O)(c1ccccc1)n1cc(C2=CCN3CCCC3C2)c2cccnc21` (stereo not shown) [3-(1,2,3,5,8,8a-Hexahydro-7-indolizinyl)-1-benzenesulfonyl-7-azaindole], the “reversal” value is on record as “able to reverse the serotonin stimulation of adenyl cyclase”.

A further test addresses T1, 5-HT6 receptor. Briefly: Binding affinity for the 5-HT6 receptor (3H-LSD displacement, membranes of recombinant cells). As to conditions: 100 nM of test compound; 3H-LSD (2 nM); 60 minute incubation at 37° C.; read-out: percent inhibition of binding of the radioligand for the 5-HT6 receptor. The procedure:
All of the compounds of the invention were evaluated using cell types receptive specifically to the 5-HT6 receptor (for cloning and characterization of the human 5-HT6 receptor see Kohen, et al. J. Neurochemistry, 66, 1996: 47-56). The assay protocol generally entailed the incubation of membranes prepared from cells expressing the 5-HT6 receptor with ^3H-LSD (2 nM). Increasing levels of the test compound were incubated with the radioligand and the membrane homogenates prepared from the recombinant cells. After a 60 minute incubation at 37° C., the incubation was terminated by vacuum filtration. The filters were washed with buffer and the filters were counted for radioactivity using liquid scintillation spectrometry. The affinity of the test compound for the 5-HT6 receptor was determined by computer-assisted analysis of the data and determining the amount of the compound necessary to inhibit 50% of the binding of the radioligand to the receptor. Concentrations ranging from 10^−11 M to 10^−5 M of the test compound were evaluated. […] Affinity for the 5-HT6 receptor is expressed as the amount (in percent) of binding of the radioligand that is inhibited in the presence of 100 nM of test compound. A greater percent inhibition indicates greater affinity for the 5-HT6 receptor.
In the case of `O=S(=O)(c1cccc2ccccc12)n1cc(C2CCN3CCCC3C2)c2ccncc21` (single isomer, unassigned) [3-(Octahydro-7-indolizinyl)-1-(1-naphthalenesulfonyl)-6-azaindole], the inhibition at 0.1 µM was greater than 80%.

Regarding `O=S(=O)(c1ccc2ccccc2c1)n1cc(C2CCN3CCCC3C2)c2cccnc21` (single isomer, unassigned) [3-(Octahydro-7-indolizinyl)-1-(2-naphthalenesulfonyl)-7-azaindole], the inhibition at 0.1 µM is greater than 80%.

For `O=C(c1c(Cl)cccc1Cl)n1cc(C2=CCN3CCCC3C2)c2cccnc21` (stereo not shown) [1-(2,6-Dichlorobenzoyl)-3-(1,2,3,5,8,8a-hexahydro-7-indolizinyl)-7-azaindole], the inhibition at 0.1 µM is greater than 80%.

Consider `O=S(=O)(c1cccc2ccccc12)n1cc(C2=CCN3CCCC3C2)c2cnccc21` (stereo not shown) [3-(1,2,3,5,8,8a-Hexahydro-7-indolizinyl)-1-(1-naphthalenesulfonyl)-5-azaindole], for which the inhibition at 0.1 µM was greater than 95%.

For `O=S(=O)(c1ccc2ccccc2c1)n1cc(C2=CCN3CCCC3C2)c2cccnc21` (stereo not shown) [3-(1,2,3,5,8,8a-Hexahydro-7-indolizinyl)-1-(2-naphthalenesulfonyl)-7-azaindole], the inhibition at 0.1 µM was greater than 90%.

With `Cc1ccc(S(=O)(=O)n2cc(C3=CCN4CCCC4C3)c3cnccc32)cc1` (stereo not shown) [3-(1,2,3,5,8,8a-Hexahydro-7-indolizinyl)-1-(4-methylbenzenesulfonyl)-5-azaindole], the inhibition at 0.1 µM is greater than 80%.

For `O=S(=O)(c1ccccc1)n1cc(C2=CCN3CCCC3C2)c2cnccc21` (stereo not shown) [3-(1,2,3,5,8,8a-Hexahydro-7-indolizinyl)-1-benzenesulfonyl-5-azaindole], the inhibition at 0.1 µM was greater than 90%.

Consider `O=S(=O)(c1cccc2ccccc12)n1cc(C2CCN3CCCC3C2)c2ncccc21` (stereo not shown) [3-(Octahydro-7-indolizinyl)-1-(1-naphthalenesulfonyl)-4-azaindole], for which the inhibition at 0.1 µM was greater than 80%.

Take `O=S(=O)(c1ccc2ccccc2c1)n1cc(C2CCN3CCCC3C2)c2ncccc21` (stereo not shown) [3-(Octahydro-7-indolizinyl)-1-(2-naphthalenesulfonyl)-4-azaindole]: the inhibition at 0.1 µM was greater than 95%.
